Laboratory results taken from US20010055590A1, “Method for enhancing myoblast migration and invasion in the context of gene therapy” (priority 1999, published 2001).

How the values were obtained:
[1] = tested on: mouse myoblasts; assay: In vitro mouse myoblast invasion assay across Matrigel barrier; type: cell-based; conditions: 24 hours; for increase of mouse myoblast invasion across Matrigel barrier over the control: 25 ng/ml bFGF, 50 μg/ml fibronectin; for effect on bFGF-stimulated mouse myoblast invasion: 0.05 units/ml plasmin or 50 mM NAC
Experimental: Mouse myoblasts were previously isolated from hind limb muscles of 4-6 week old severe combined immunodeficient (SCID) mice and clonally purified from contaminating fibroblasts (Yao et al. “Primary myoblast-mediated gene: transfer: persistent expression of human factor IX in mice” Gene Therapy 1:99-107, 1994). Myoblasts (approximately 1×10^6 cells) were plated on 6 cm tissue culture plates coated with 0.5% gelatin (Sigma, St. Louis, Mo.) and grown in growth medium consisting of Dulbecco's Modified Eagle Medium (DMEM) (Gibco BRL, Gaithersburg Md.) supplemented with 20% fetal bovine serum (FBS; Gibco) and 0.5% chick embryo extract (CEE; Gibco). All animal studies were carried out following the institutional guidelines for ethical animal use. Human myoblasts were isolated using trypsin digestion from abdominal wall or chest wall muscle biopsies, and surgery. Written consent was obtained from all patients prior to biopsy isolation as approved by the University Hospital's Institutional Regulation Board on the use of human subjects. Cells were preplated on uncoated plates for 1 hour to separate muscle fibroblasts. […] All experiments were done with myoblasts of passage 7 or lower. Myoblast migration and invasion were examined using a commercially available in vitro cell migration and invasion assay kit (Biocoat, Becton Dickinson, Franklin Lakes, N.J.) as described by Albini et al. (A rapid in vitro assay for quantitating the invasive potential of tumor cells Cancer Res 47:3239-3245, 1987). Myoblasts were grown to approximately 70% confluence, rinsed three times in serum-free DMEM, followed by incubation for 3 hours in 0.2% bovine serum albumin (BSA) in DMEM to eliminate the effects of serum. Cells were then trypsinized and collected by centrifugation. Cells were resuspended in serum-free DMEM at a density of 1×10^5 cells/ml, and 0.5 ml aliquots of cell suspension were added to the top chamber. […] Fibronectin subfragments of 45 KDa (Sigma), 120 kDa (Gibco), 63 kDa (Retronectin, Takara) and 70 KDa (Sigma) were used alone or in combination. […] For migration studies, the upper chamber membrane was coated with 0.1% gelatin and cells were allowed to migrate for 8-12 hours, while for invasion studies, the upper membrane was coated with 5 μl of Matrigel® diluted to 5 mg/ml in sterile phosphate buffered saline (PBS) and cells were allowed to invade for 24 hours. The top side of the insert membrane was scrubbed free of cells using a cotton swab and the bottom side was stained using the Leukostat-I system (Fisher Diagnostics, Pittsburgh, Pa.). The number of cells per field was counted in 10 randomly selected fields and averaged for each condition. To evaluate the effects of inactivation or activation of MMPs, aliquots (0.05 units in 50 μl PBS) of purified human plasmin (Sigma) or 50 mM N-acetyl cysteine (NAC; Sigma) were added with the cells to the top chamber of the migration assay and growth factor was added to the bottom. […] Myoblasts (5×10^4 cells/well) were stimulated with various growth factors and fibronectin, and their ability to migrate or invade through a Matrigel® barrier (panel a, mouse myoblast migration at 12 hours; panel b, mouse myoblast invasion at 24 hours). […] Bars represent mean ±SEM from a minimum of 3 separate experiments.

[2] = tested on: MMP-2; assay: Gelatin zymography of mouse myoblast culture medium, MMP-2; type: cell-based
Experimental: Briefly, myoblasts were grown in 6 cm tissue culture plates to approximately 70% confluence, then rinsed three times with serumfree DMEM and incubated for 3 hours in DMEM containing 0.2% BSA to eliminate the effects of serum. Growth factors were added and cells were incubated for 24 hours. Culture medium was then collected, centrifuged to pellet detached cells, and concentrated ten-to twenty-fold using the Centricon-10 (Amicon, Beverly, Mass.) system. The protein concentration of the supernatants was determined using the Bio-Rad protein microassay system with BSA used as the standard. Samples were stored at −70° C. until use. For gelatin zymography, aliquots (10 μg as the total protein per sample) were electrophoresed at constant voltage on a 10% polyacrylamide gel containing 2 mg/ml gelatin. The gel was rinsed three times for 15 min in 2.5% Triton-X 100 to remove SDS and renature the proteins, then incubated in MMP activation buffer (0.05 M Tris-HCl, pH 7.5 with 5 mM CaCl2) for 24 hours at 37° C. with constant shaking. Gels were stained overnight in 0.5% Coomassie blue R-250, and destained for 1 hour in 40% methanol: 10% acetic acid. Proteinase activity was quantified by densitometric scanning of bands using a Bio-Rad Gel Doc 1000 video camera imaging system (Bio Rad, Hercules, Calif.). […] Values are arbitrary densitometric units, which are normalized to DMEM control for each experiment and shown as values ±SEM representing a minimum of 3 experiments per condition. […] Mouse myoblasts were treated for 24 hours with either DMEM alone, fibronectin (50 μg/ml), or individual fragments (37.5 μg/ml) of 45, 120, 63 (Retronectin), 75 kDa and their combinations, 45 kDa/120 kDa and 120 kDa/63 kDa.

[3] = tested on: MMP-9; assay: Gelatin zymography of mouse myoblast culture medium, MMP-9; type: cell-based
Experimental: Briefly, myoblasts were grown in 6 cm tissue culture plates to approximately 70% confluence, then rinsed three times with serumfree DMEM and incubated for 3 hours in DMEM containing 0.2% BSA to eliminate the effects of serum. Growth factors were added and cells were incubated for 24 hours. Culture medium was then collected, centrifuged to pellet detached cells, and concentrated ten-to twenty-fold using the Centricon-10 (Amicon, Beverly, Mass.) system. The protein concentration of the supernatants was determined using the Bio-Rad protein microassay system with BSA used as the standard. Samples were stored at −70° C. until use. For gelatin zymography, aliquots (10 μg as the total protein per sample) were electrophoresed at constant voltage on a 10% polyacrylamide gel containing 2 mg/ml gelatin. The gel was rinsed three times for 15 min in 2.5% Triton-X 100 to remove SDS and renature the proteins, then incubated in MMP activation buffer (0.05 M Tris-HCl, pH 7.5 with 5 mM CaCl2) for 24 hours at 37° C. with constant shaking. Gels were stained overnight in 0.5% Coomassie blue R-250, and destained for 1 hour in 40% methanol: 10% acetic acid. Proteinase activity was quantified by densitometric scanning of bands using a Bio-Rad Gel Doc 1000 video camera imaging system (Bio Rad, Hercules, Calif.). […]

[4] = tested on: SCID mouse vastus musculature; assay: Myoblast implantation in vivo: incorporation of β-GAL-marked myoblasts into host myofibers; conditions: myoblasts stimulated before implantation with 1 μg/ml bFGF, 50 μg/ml fibronectin or both; SCID mice, 3 weeks; 4 animals
Experimental: All animal studies were carried out following the institutional guideline for animal use. For in vivo studies, SCID mouse myoblasts transduced with a BAG retrovirus containing the beta-galactosidase (β-GAL) reporter gene and selected as previously described (Yao and Kurachi “Implanted myoblasts not only fuse with myofibers but also survive as muscle precursor cells” J. Cell Sci 105:957-963, 1993), were grown in growth medium on 15 cm plates. When cells reached 70% confluence they were harvested by trypsinization using standard methods, rinsed twice in phosphate buffered saline (PBS), and resuspended in DMEM containing either bFGF (1 μg/ml), fibronectin (50 μg/ml) or both, at a concentration of 2×10^7 cells/ml. […]
Muscle sections were stained for β-GAL activity using the standard histochemical staining procedure (Rando et al. “The fate of myoblasts following transplant into mature muscle” Exper. Cell Res. 220:383-389, 1995). […] The total number of β-GAL-positive fibers (stained blue) per section was counted for 5 different sections spanning the entire injection site for each animal and averaged. […]
The number of β-GAL positive myofibers were quantified after implantation of BAG-transduced SCID myoblasts treated with DMEM alone (control), 1 μg/ml bFGF, 50 μg/ml fibronectin, or 1 μg/ml bFGF+50 μg/ml fibronectin. […]

[5] = mouse myoblasts treated 24 hours

Row | Molecule | increase of mouse myoblast invasion across Matrigel barrier over the control [1] | increase in the number of β-GAL-positive myofibers over control [4] [fold] | effect on bFGF-stimulated mouse myoblast invasion [1] | further results
1 | human serum fibronectin | 4 fold | 2 | – | MMP-2 proteolytic activation (64 and 62 kDa forms) [2, 5]: substantial proteolytic conversion to the activated and intermediate forms; increased MMP-2 expression ([2]; mouse myoblasts, soluble fibronectin 24 hours): approximately 2 fold; effect on MMP-9 expression ([3]; mouse myoblasts): does not significantly affect
2 | CC(=O)N[C@@H](CS)C(=O)O [NAC, N-acetyl cysteine, reference compound] | – | – | drastically reduced such stimulatory effects to the control levels | –
3 | bovine basic fibroblast growth factor [bFGF] | approximately 7 fold | 2.3 | – | increase of total MMP-2 expression ([2]; mouse myoblasts treated 24 hours, densitometry normalized to DMEM control): 49%; MMP-9 expression (110 kDa band) over the DMEM control level [3, 5]: ~10 fold
4 | purified human plasmin (protein, UniProt P00747 20-580; P00747 581-810, looked up, Plasmin) Plasmin heavy chain A: EPLDDYVNTQGASLFSVTKKQLGAGSIEECAAKCEEDEEFTCRAFQYHSKEQQCVIMAENRKSSIIIRMRDVVLFEKKVYLSECKTGNGKNYRGTMSKTKNGITCQKWSSTSPHRPRFSPATHPSEGLEENYCRNPDNDPQGPWCYTTDPEKRYDYCDILECEEECMHCSGENYDGKISKTMSGLECQAWDSQSPHAHGYIPSKFPNKNLKKNYCRNPDRELRPWCFTTDPNKRWELCDIPRCTTPPPSSGPTYQCLKGTGENYRGNVAVTVSGHTCQHWSAQTPHTHNRTPENFPCKNLDENYCRNPDGKRAPWCHTTNSQVRWEYCKIPSCDSSPVSTEQLAPTAPPELTPVVQDCYHGDGQSYRGTSSTTTTGKKCQSWSSMTPHRHQKTPENYPNAGLTMNYCRNPDADKGPWCFTTDPSVRWEYCNLKKCSGTEASVVAPPPVVLLPDVETPSEEDCMFGNGKGYRGKRATTVTGTPCQDWAAQEPHRHSIFTPETNPRAGLEKNYCRNPDGDVGGPWCYTTNPRKLYDYCDVPQCAAPSFDCGKPQVEPKKCPGR Plasmin light chain B: VVGGCVAHPHSWPWQVSLRTRFGMHFCGGTLISPEWVLTAAHCLEKSPRPSSYKVILGAHQEVNLEPHVQEIEVSRLFLEPTRKDIALLKLSSPAVITDKVIPACLPSPNYVVADRTECFITGWGETQGTFGAGLLKEAQLPVIENKVCNRYEFLNGRVQSTELCAGHLAGGTDSCQGDSGGPLVCFEKDKYILQGVTSWGLGCARPNKPGVYVRVSRFVTWIEGVMRNN | – | – | further increased the effects of bFGF | effect on invasion stimulated by combination of bFGF and fibronectin ([1]; plasmin): lowered the greatly enhanced effects
